Laboratory results from ChEMBL document CHEMBL1137244, “Ureas with histamine H3-antagonist receptor activity--a new scaffold discovered by lead-hopping from cinnamic acid amides” (Bioorg Med Chem Lett, 2006).

Experiments:
Histamine H3 receptor = Histamine H3 receptor (Homo sapiens, UniProt Q9Y5N1); assay: Binding affinity at histamine H3 receptor by hH3-[35S]GTPgamma[S] binding assay; format: functional
hERG (KCNH2) = hERG (KCNH2) (Homo sapiens, UniProt Q12809); assay: in vitro
Cytochrome P450 2D6 = Cytochrome P450 2D6 (Homo sapiens, UniProt P10635)
Cytochrome P450 2D6, sequence (P10635 whole entry): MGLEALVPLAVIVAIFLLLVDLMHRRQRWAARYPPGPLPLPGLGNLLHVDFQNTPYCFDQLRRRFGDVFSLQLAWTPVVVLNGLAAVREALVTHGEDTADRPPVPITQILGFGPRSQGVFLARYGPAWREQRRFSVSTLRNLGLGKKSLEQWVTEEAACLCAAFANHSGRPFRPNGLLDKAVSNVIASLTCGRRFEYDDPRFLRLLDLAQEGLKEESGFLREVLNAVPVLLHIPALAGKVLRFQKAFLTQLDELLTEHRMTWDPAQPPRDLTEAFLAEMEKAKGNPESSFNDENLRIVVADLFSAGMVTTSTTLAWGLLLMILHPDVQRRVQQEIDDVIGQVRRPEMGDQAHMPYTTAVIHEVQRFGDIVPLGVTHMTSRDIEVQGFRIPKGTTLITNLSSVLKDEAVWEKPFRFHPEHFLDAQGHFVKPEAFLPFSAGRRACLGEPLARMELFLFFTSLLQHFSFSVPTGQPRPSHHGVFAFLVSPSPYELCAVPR

Cytochrome P450 1A2 = biological target: T1, Cytochrome P450 1A2 (Homo sapiens, UniProt P05177)
T1 sequence (P05177 whole entry): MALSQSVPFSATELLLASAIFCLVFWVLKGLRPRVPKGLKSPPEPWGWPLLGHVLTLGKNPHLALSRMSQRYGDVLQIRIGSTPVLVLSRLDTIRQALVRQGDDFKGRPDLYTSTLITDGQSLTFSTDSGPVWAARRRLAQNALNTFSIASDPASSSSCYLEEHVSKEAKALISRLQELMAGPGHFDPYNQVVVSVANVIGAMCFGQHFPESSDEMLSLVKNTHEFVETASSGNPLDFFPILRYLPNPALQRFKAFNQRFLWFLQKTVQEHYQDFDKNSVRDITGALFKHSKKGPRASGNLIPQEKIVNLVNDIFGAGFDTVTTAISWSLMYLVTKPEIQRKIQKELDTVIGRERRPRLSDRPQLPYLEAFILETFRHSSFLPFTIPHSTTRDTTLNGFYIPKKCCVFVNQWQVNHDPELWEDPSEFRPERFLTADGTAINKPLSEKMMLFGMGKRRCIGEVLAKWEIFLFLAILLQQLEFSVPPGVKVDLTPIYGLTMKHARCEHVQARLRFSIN

Cytochrome P450 3A4 = Cytochrome P450 3A4 (Homo sapiens, UniProt P08684)
Cytochrome P450 3A4, sequence (P08684 whole entry): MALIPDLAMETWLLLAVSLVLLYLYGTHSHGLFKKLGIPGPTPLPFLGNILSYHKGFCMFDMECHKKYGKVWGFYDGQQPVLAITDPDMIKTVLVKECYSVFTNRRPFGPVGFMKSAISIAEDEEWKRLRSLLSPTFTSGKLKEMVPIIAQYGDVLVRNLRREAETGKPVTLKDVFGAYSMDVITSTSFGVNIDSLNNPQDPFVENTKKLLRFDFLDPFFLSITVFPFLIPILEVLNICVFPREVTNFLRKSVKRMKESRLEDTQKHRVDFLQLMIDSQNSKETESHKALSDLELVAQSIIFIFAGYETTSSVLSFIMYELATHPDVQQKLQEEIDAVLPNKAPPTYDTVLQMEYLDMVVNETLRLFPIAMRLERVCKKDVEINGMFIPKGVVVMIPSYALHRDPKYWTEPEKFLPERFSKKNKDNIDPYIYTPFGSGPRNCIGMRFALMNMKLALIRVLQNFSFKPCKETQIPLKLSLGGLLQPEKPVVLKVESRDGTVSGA

[1] = HEK293 cells that express hERG, probe [3H]astemizole

hERG (KCNH2), sequence (Q12809 whole entry): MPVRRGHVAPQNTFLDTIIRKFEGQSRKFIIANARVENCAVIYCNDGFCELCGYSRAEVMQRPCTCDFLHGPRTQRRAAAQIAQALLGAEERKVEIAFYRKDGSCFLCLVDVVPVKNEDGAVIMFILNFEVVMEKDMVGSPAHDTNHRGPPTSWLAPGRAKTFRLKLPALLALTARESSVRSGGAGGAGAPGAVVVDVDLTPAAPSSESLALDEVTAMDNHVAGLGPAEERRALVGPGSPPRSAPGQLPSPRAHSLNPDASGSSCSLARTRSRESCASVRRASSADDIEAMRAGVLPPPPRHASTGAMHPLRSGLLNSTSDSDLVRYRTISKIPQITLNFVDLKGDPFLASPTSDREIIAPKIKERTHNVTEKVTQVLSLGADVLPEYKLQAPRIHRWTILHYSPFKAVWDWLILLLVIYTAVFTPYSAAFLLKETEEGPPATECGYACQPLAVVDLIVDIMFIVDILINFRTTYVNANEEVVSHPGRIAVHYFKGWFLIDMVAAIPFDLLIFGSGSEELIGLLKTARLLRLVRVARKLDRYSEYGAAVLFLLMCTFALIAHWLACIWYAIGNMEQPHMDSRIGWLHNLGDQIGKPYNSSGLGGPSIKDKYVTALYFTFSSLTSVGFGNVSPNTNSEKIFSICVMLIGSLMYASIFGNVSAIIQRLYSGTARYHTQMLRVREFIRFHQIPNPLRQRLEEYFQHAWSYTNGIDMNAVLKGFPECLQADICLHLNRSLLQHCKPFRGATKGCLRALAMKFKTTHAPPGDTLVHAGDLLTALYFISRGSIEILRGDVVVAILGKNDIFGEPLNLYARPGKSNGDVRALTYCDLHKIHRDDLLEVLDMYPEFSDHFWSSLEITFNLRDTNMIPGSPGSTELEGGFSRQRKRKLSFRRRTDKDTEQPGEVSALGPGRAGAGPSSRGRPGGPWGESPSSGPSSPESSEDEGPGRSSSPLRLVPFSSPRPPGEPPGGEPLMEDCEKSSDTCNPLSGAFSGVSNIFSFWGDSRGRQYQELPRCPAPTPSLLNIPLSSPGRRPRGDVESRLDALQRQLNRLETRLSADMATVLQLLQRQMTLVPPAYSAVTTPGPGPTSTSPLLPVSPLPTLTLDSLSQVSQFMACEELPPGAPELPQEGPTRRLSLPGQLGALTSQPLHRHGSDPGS
Histamine H3 receptor, sequence (Q9Y5N1 whole entry): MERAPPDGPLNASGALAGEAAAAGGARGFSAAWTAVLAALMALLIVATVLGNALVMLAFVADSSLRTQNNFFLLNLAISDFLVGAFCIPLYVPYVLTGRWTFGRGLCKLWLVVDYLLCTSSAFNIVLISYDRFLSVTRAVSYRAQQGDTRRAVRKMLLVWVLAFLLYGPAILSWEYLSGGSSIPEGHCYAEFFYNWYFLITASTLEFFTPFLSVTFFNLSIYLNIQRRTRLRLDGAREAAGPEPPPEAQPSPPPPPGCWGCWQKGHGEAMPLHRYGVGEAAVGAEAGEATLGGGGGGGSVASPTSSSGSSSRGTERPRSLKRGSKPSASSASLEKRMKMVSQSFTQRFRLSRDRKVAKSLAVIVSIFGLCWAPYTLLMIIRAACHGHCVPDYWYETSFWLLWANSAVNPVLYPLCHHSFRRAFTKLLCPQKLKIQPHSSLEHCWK

| Ki (Histamine H3 receptor) | SMILES | also measured |
| --- | --- | --- |
| 295 nM (antagonist) | COc1ccc(CNC(=O)N2CCC[C@H]2CN2CCCC2)cc1 |  |
| 87 nM (antagonist) | O=C(NCc1ccc(-c2ccccc2)cc1)N1CCC[C@H]1CN1CCCC1 |  |
| 29 nM (antagonist) | O=C(NC1Cc2ccccc2C1)N1CCN(C2CCCC2)CC1 |  |
| 20 nM (antagonist) | CC(C)N1CCN(C(=O)NCc2ccc(Cl)c(Cl)c2)CC1 |  |
| 458 nM (antagonist) | O=C(NCC1CCCCC1)N1CCC[C@H]1CN1CCCC1 |  |
| 94 nM (antagonist) | O=C(NCc1ccccc1)N1CCN(C2CCCC2)CC1 |  |
| 47 nM (antagonist) | O=C(NCc1ccc(Cl)c(Cl)c1)N1CCC[C@H]1CN1CCCC1 |  |
| 165 nM (antagonist) | O=C(NCc1ccc(Cl)cc1)N1CCC[C@H]1CN1CCCC1 |  |
|  | O=C(N1Cc2ccccc2C1)N1CCC[C@H]1CN1CCCC1 | inhibition at 10 µM (hERG (KCNH2); [1]): 26% |
|  | CC(C)N1CCN(C(=O)N2CC=C(c3ccccc3)CC2)CC1 | inhibition at 10 µM (hERG (KCNH2); hek293): 31% |
| 34 nM (antagonist) | O=C(NCc1ccc(Oc2ccccc2)cc1)N1CCC[C@H]1CN1CCCC1 |  |
|  | CC(C)N1CCN(C(=O)N2CCC(NC(=O)C3CCCC3)CC2)CC1 | IC50 (Cytochrome P450 2D6): 17000 nM; IC50 (Cytochrome P450 1A2): > 25000 nM; inhibition at 10 µM (hERG (KCNH2); hek293): 6%; IC50 (Cytochrome P450 3A4): > 25000 nM |
|  | O=C(N1CCN(C2CCCC2)CC1)N1Cc2ccccc2C1 | inhibition at 10 µM (hERG (KCNH2); [1]): 45% |
| 40 nM (antagonist) | CCN1CCN(C(=O)N[C@@H]2C[C@H]2c2ccccc2)CC1 |  |
| 15 nM (antagonist) | O=C(NCc1ccc(Cl)c(Cl)c1)N1CCN(C2CCCC2)CC1 |  |
| 30 nM (antagonist) | CC(C)N1CCN(C(=O)NC2Cc3ccccc3C2)CC1 |  |
|  | CN(Cc1ccc(-c2ccccc2)cc1)C(=O)N1CCC[C@H]1CN1CCCC1 | inhibition at 10 µM (hERG (KCNH2); [1]): 66% |
| 109 nM (antagonist) | NCc1ccc(CNC(=O)N2CCC[C@H]2CN2CCCC2)cc1 |  |
|  | COc1cc2c(cc1OC)CN(C(=O)N1CCN(C(C)C)CC1)CC2 | inhibition at 10 µM (hERG (KCNH2); [1]): 8% |

| Ki (Histamine H3 receptor) | SMILES | also measured |
| --- | --- | --- |
| 117 nM (antagonist) | O=C(NCc1cccc(C(F)(F)F)c1)N1CCC[C@H]1CN1CCCC1 |  |
| 52 nM (antagonist) | O=C(NC1Cc2ccccc2C1)N1CCC[C@H]1CN1CCCC1 |  |
|  | CC(C)N1CCN(C(=O)N2CCC(C(=O)OC(C)(C)C)CC2)CC1 | IC50 (Cytochrome P450 2D6): > 25000 nM; IC50 (Cytochrome P450 1A2): > 25000 nM; inhibition at 10 µM (hERG (KCNH2); [1]): 9%; IC50 (Cytochrome P450 3A4): > 25000 nM |
|  | CC(C)N1CCN(C(=O)N2CCC(Cc3ccccc3)CC2)CC1 | inhibition at 10 µM (hERG (KCNH2); hek293): 21% |
| 13.4 nM (antagonist) | O=C(/C=C/c1ccc(OC(F)(F)F)cc1)N1CCC[C@H]1CN1CCCC1 |  |
| 121 nM (antagonist) | O=C(NCc1ccc(OC(F)(F)F)cc1)N1CCC[C@H]1CN1CCCC1 |  |
| 3.7 nM (antagonist) | O=C(/C=C/c1ccc(-c2ccccc2)cc1)N1CCC[C@H]1CN1CCCC1 |  |
| 78 nM (antagonist) | NCc1cccc(CNC(=O)N2CCC[C@H]2CN2CCCC2)c1 |  |
| 188 nM (antagonist) | COc1cccc(CNC(=O)N2CCC[C@H]2CN2CCCC2)c1 |  |
| 44 nM (antagonist) | CCN1CCN(C(=O)NC2Cc3ccccc3C2)CC1 |  |
| 196 nM (antagonist) | O=C(NCc1ccccc1)N1CCC[C@H]1CN1CCCC1 |  |
| 37 nM (antagonist) | CC(C)N1CCN(C(=O)N(C)Cc2ccc(-c3ccccc3)cc2)CC1 | inhibition at 10 µM (hERG (KCNH2); [1]): 55% |
| 11.2 nM (antagonist) | O=C(/C=C/c1ccc(Cl)cc1)N1CCC[C@H]1CN1CCCC1 |  |
| 226 nM (antagonist) | O=C(NCCc1ccccc1)N1CCC[C@H]1CN1CCCC1 |  |
| 34 nM (antagonist) | CC(C)N1CCN(C(=O)NCc2ccc(Oc3ccccc3)cc2)CC1 |  |
| 38 nM (antagonist) | O=C(NCc1ccc(Oc2ccccc2)cc1)N1CCN(C2CCCC2)CC1 |  |
|  | O=C(N1CCN(C2CC2)CC1)N1Cc2ccccc2C1 | inhibition at 10 µM (hERG (KCNH2); [1]): 16% |
|  | CC(C)N1CCN(C(=O)N2CCC(C(=O)N3CC4CCC(CC4)C3)CC2)CC1 | IC50 (Cytochrome P450 2D6): > 25000 nM; IC50 (Cytochrome P450 1A2): > 25000 nM; inhibition at 10 µM (hERG (KCNH2); hek293): 8%; IC50 (Cytochrome P450 3A4): > 25000 nM |
